From patent publication US20190040106A1, “USE OF HUMAN DERIVED IMMUNOSUPPRESSIVE PROTEINS AND PEPTIDES AS MEDICAMENTS” (AIMVION A/S, priority 2015, published 2019)
Bridge positions count the residues as written; N and C are the ends. Ends that are not written are not given here. Peptide text beside a SMILES is read from it. I, II: the chains in the order shown.

What was measured:
THP-1 or HT-1080 cells = assay: CellTiter-Blue Cell Viability Assay, toxicity profile of peptides; conditions: about 20 h exposure
Excerpt: Here, we examined the cytotoxicity effect of peptides SG#1 to SG#17 (ID1031 to ID1047) on two human cell lines THP-1 or HT-1080 cells.
The CellTiter-Blue® Cell Viability Assay provides a homogenous, fluorometric method for estimating the number of viable cells present in multiwall plates. It uses the indicator dye resazurin to measure the metabolic capacity of cells—an indicator of cell viability. Viable cells retain the ability to reduce resazurin into resorufin, which is highly fluorescent.
The CellTiter-Blue® Reagent is a buffered solution containing highly purified resazurin. Resazurin is dark blue in color and has little intrinsic fluorescence. However, when it is reduced to resorufin, it becomes pink and highly fluorescent (579EX/584EM).
• 1. Set up 96-well assay plates containing cells in culture medium. For HT-1080, plate 1.6×10^4 cells per well on the Day 1 of the experiment. Cells are plated in 100 μl complete culture medium (DMEM) per well. • 2. On day 2, gently remove medium and add 50 μl of complete DMEM medium, add peptides and vehicle controls to appropriate wells so the final volume is 100 μl in each well. Supplement with complete DMEM where necessary. • 3. Culture cells for the desired test exposure period, about 20 h. • 4. On day 3, remove assay plates from 37° C. incubator and add 20 μl/well of CellTiter-Blue® Reagent. • 5. Shake for 10 seconds. • 6. Incubate using standard cell culture conditions for 4 hours. • 7. Shake plate for 10 seconds and record fluorescence at 560/590 nm
Toxicity profile for peptides SG#1 to SG#17 (ID1031 to ID1047). All peptides were tested at the dosage increment (10 nm, 30 nM, 100 nM, 1 μM, 10 μM, 30 μM, 100 μM and 300 μM).

[1] = system: murine model of collagen-induced arthritis; assay: Collagen-induced arthritis model (CIA model), study number 2, Example 12; type: in vivo, female DBA/1J mice; set-up: key to Terminal Individual Paw Score, Front right, group mean / Terminal Individual Paw Score, Front left, group mean / Terminal Individual Paw Score, Rear right, group mean / Terminal Individual Paw Score, Rear left, group mean: 0 = no arthritis, 4 = severe arthritis of entire paw; key to Arthritic Index (AI), group mean: sum of four paw scores, each 0 = none to 4 = severe; conditions: for Terminal Individual Paw Score, Front left, group mean / Terminal Individual Paw Score, Front right, group mean / Terminal Individual Paw Score, Rear left, group mean / Terminal Individual Paw Score, Rear right, group mean: day 42; for effect on diseased mouse weight / incidence of disease / reduction in disease severity: once daily subcutaneous 4 μg/mouse; for incidence of disease: starting one hour prior to disease induction; for reduction in disease severity: at the termination of the study; for Arthritic Index (AI), group mean: peptides 4 μg/mouse, methotrexate 1 mg/kg, subcutaneous
Protocol: The CIA model as described in an Example 9 is the “standard” animal model for evaluation of anti-arthritic activity based on immunization with bovine collagen to develop antibodies against bone and cartilage.
Here we present data on investigating in vivo effect of the HERV-Env59, SG#2, and SG#5 and SG#15 peptides. The aim was to determine anti-arthritic dosing paradigm in a murine model of collagen-induced arthritis. This study was carried out in female DBA/1J mice. The effect of the Env59 ISU peptide, SG#2, SG#5 or SG#15 peptide on disease development is compared with a methotrexate MTX (positive control) or saline treated control group.
Day 0: The mice were weighted and injected subcutaneously at the nape of the neck as in the table below (table 6):
(§1) An hour later, the mice were injected subcutaneously at the base of the tail with 50 μl of the collagen/CFA emulsion.
(§2) Mice were scored for signs of arthritis every Monday, Wednesday, and Friday during the next 41 days as follows: • Each paw receives a score • 0=no visible effects of arthritis • 1=edema and/or erythema of 1 digit • 2=edema and/or erythema of 2 digits • 3=edema and/or erythema of more than 2 digits • 4=severe arthritis of entire paw and digits
(§3) The Arthritic Index (AI) was calculated by the addition of individual paw scores.
(§4) Day 42 The mice were weighted and scored for signs of arthritis.

[2] = system: murine model of collagen-induced arthritis; assay: Collagen-induced arthritis model (CIA model), Example 9; type: in vivo, female DBA/1J mice; set-up: key to terminal individual paw score, Front right, group mean / terminal individual paw score, Front left, group mean / terminal individual paw score, Rear right, group mean / terminal individual paw score, Rear left, group mean: paw score 0 = no arthritis to 4 = severe arthritis of entire paw; key to Arthritic Index (AI), group mean: sum of four paw scores, each 0 (no arthritis) to 4 (severe); max 16; conditions: for Arthritic Index (AI), group mean: peptide 4 μg/mouse, methotrexate 3 mg/kg, subcutaneous
Protocol: The CIA model is the “standard” animal model for evaluation of anti-arthritic activity based on immunization with bovine collagen to develop antibodies against bone and cartilage.
The aim was to determine anti-arthritic dosing paradigm in a murine model of collagen-induced arthritis. This study was carried out in female DBA/1J mice. The effect of the Env59 ISU peptides on disease development is compared with a methotrexate MTX (positive control) or saline treated control group.
Day 0: The mice were weighted and injected subcutaneously at the nape of the neck as in the table below (table 3):
as §1, §2, §3, §4

LQNRRGLGLSILLNEE [SG#13]
Toxicity yes/no at the 300 μM conc. (THP-1 or HT-1080 cells): No

LQNRRGLGLSILLNEECEEGPGPGP (Possibly HERV) [SG#2]
Terminal Individual Paw Score, Front left, group mean [1]: 0.4
Terminal Individual Paw Score, Front right, group mean [1]: 0.4
Terminal Individual Paw Score, Rear left, group mean [1]: 0.1
Terminal Individual Paw Score, Rear right, group mean [1]: 0.5
effect on diseased mouse weight [1]: no effect
incidence of disease [1]: 30%
reduction in disease severity [1]: 90%
Arthritic Index (AI), group mean ([1]; study day 14): 0
Arthritic Index (AI), group mean ([1]; study day 21): 0
Arthritic Index (AI), group mean ([1]; study day 25): 0
Arthritic Index (AI), group mean ([1]; study day 27): 0.4
Arthritic Index (AI), group mean ([1]; study day 29): 0.4
Arthritic Index (AI), group mean ([1]; study day 32): 0.9
Arthritic Index (AI), group mean ([1]; study day 34): 0.9
Arthritic Index (AI), group mean ([1]; study day 36): 0.9
Arthritic Index (AI), group mean ([1]; study day 39): 0.9
Arthritic Index (AI), group mean ([1]; study day 41): 1.0
Arthritic Index (AI), group mean ([1]; study day 42): 1.4
Toxicity yes/no at the 300 μM conc. (THP-1 or HT-1080 cells): No

LQNRRGLGLSILLNEECGPGPGP [SG#10]
Toxicity yes/no at the 300 μM conc. (THP-1 or HT-1080 cells): No

LQNKRGLGLSILLNEECGPGPGP (Possibly HERV) [SG#8]
Toxicity yes/no at the 300 μM conc. (THP-1 or HT-1080 cells): No

CN(Cc1cnc2nc(N)nc(N)c2n1)c1ccc(C(=O)N[C@@H](CCC(=O)O)C(=O)O)cc1 [Methotrexate, reference compound]
Terminal Individual Paw Score, Front left, group mean [1]: 0
Terminal Individual Paw Score, Front right, group mean [1]: 0
Terminal Individual Paw Score, Rear left, group mean [1]: 0
Terminal Individual Paw Score, Rear right, group mean [1]: 0
Arthritic Index (AI), group mean ([1]; study day 14): 0
Arthritic Index (AI), group mean ([1]; study day 21): 0
Arthritic Index (AI), group mean ([1]; study day 25): 0
Arthritic Index (AI), group mean ([1]; study day 27): 0
Arthritic Index (AI), group mean ([1]; study day 29): 0
Arthritic Index (AI), group mean ([1]; study day 32): 0
Arthritic Index (AI), group mean ([1]; study day 34): 0
Arthritic Index (AI), group mean ([1]; study day 36): 0
Arthritic Index (AI), group mean ([1]; study day 39): 0
Arthritic Index (AI), group mean ([1]; study day 41): 0
Arthritic Index (AI), group mean ([1]; study day 42): 0
terminal individual paw score, Front left, group mean ([2]; day 42): 0
terminal individual paw score, Front right, group mean ([2]; day 42): 0
terminal individual paw score, Rear left, group mean ([2]; day 42): 0
terminal individual paw score, Rear right, group mean ([2]; day 42): 0
Arthritic Index (AI), group mean ([2]; study day 21): 0
Arthritic Index (AI), group mean ([2]; study day 22): 0
Arthritic Index (AI), group mean ([2]; study day 25): 0
Arthritic Index (AI), group mean ([2]; study day 27): 0
Arthritic Index (AI), group mean ([2]; study day 29): 0
Arthritic Index (AI), group mean ([2]; study day 32): 0
Arthritic Index (AI), group mean ([2]; study day 34): 0
Arthritic Index (AI), group mean ([2]; study day 36): 0
Arthritic Index (AI), group mean ([2]; study day 38): 0
Arthritic Index (AI), group mean ([2]; study day 41): 0
Arthritic Index (AI), group mean ([2]; study day 42): 0

LQNKKGLGLSILLNEECGPGPGP (Possibly HERV) [SG#9]
Toxicity yes/no at the 300 μM conc. (THP-1 or HT-1080 cells): No

LNRKAIGLSILLNEECGPGPGP (Possibly HERV) [SG#6]
Toxicity yes/no at the 300 μM conc. (THP-1 or HT-1080 cells): No

LQNRRGLGLSILLNEECGPGPGP [SG#17] (Possibly HERV)
Toxicity yes/no at the 300 μM conc. (THP-1 or HT-1080 cells): No

CC[C@H](C)[C@H](NC(=O)[C@H](CO)NC(=O)[C@H](CC(C)C)NC(=O)CNC(=O)[C@H](CCCCNC(=O)[C@H](CC(C)C)NC(=O)CNC(=O)[C@H](CCCNC(=N)N)NC(=O)[C@H](CCCNC(=N)N)NC(=O)[C@H](CC(N)=O)NC(=O)[C@H](CCC(N)=O)NC(=O)[C@@H](N)CC(C)C)NC(=O)[C@H](CC(C)C)NC(=O)CNC(=O)[C@H](CCCNC(=N)N)NC(=O)[C@H](CCCNC(=N)N)NC(=O)[C@H](CC(N)=O)NC(=O)[C@H](CCC(N)=O)NC(=O)[C@@H](N)CC(C)C)C(=O)N[C@@H](CC(C)C)C(=O)N[C@@H](CC(C)C)C(=O)N[C@@H](CC(N)=O)C(=O)N[C@@H](CCC(=O)O)C(=O)N[C@@H](CCC(=O)O)C(=O)O [SG#16] (I: H-LQNRRGLKGLSILLNEE-OH / II: H-LQNRRGL; amide I:8-II:C)
Toxicity yes/no at the 300 μM conc. (THP-1 or HT-1080 cells): No

GLSILLNEECGPGPGP (Possibly HERV) [SG#5]
Terminal Individual Paw Score, Front left, group mean [1]: 1.3
Terminal Individual Paw Score, Front right, group mean [1]: 1.1
Terminal Individual Paw Score, Rear left, group mean [1]: 0.3
Terminal Individual Paw Score, Rear right, group mean [1]: 1.0
effect on diseased mouse weight [1]: no effect
incidence of disease [1]: 80%
reduction in disease severity [1]: 70%
Arthritic Index (AI), group mean ([1]; study day 14): 0
Arthritic Index (AI), group mean ([1]; study day 21): 0
Arthritic Index (AI), group mean ([1]; study day 25): 0
Arthritic Index (AI), group mean ([1]; study day 27): 0.0
Arthritic Index (AI), group mean ([1]; study day 29): 0.9
Arthritic Index (AI), group mean ([1]; study day 32): 1.1
Arthritic Index (AI), group mean ([1]; study day 34): 1.3
Arthritic Index (AI), group mean ([1]; study day 36): 2.1
Arthritic Index (AI), group mean ([1]; study day 39): 3.3
Arthritic Index (AI), group mean ([1]; study day 41): 3.5
Arthritic Index (AI), group mean ([1]; study day 42): 3.6
Toxicity yes/no at the 300 μM conc. (THP-1 or HT-1080 cells): No

LQNRRGLGLSILLNEECGPKK (Possibly HERV) [SG#11]
Toxicity yes/no at the 300 μM conc. (THP-1 or HT-1080 cells): No

LQNRRGLGLSILLNC (Possibly HERV) [SG#4]
Toxicity yes/no at the 300 μM conc. (THP-1 or HT-1080 cells): No

LQNRRGLGLSILLNEECKKGPGPGP (Possibly HERV) [SG#1]
Toxicity yes/no at the 300 μM conc. (THP-1 or HT-1080 cells): No

LQNRRGLGLSILLNEELQNRRGLC (Possibly HERV) [SG#12]
Toxicity yes/no at the 300 μM conc. (THP-1 or HT-1080 cells): No

LQNRRGLLQNRRGLGLSILLNEE (Possibly HERV) [SG#15]
Terminal Individual Paw Score, Front left, group mean [1]: 0.1
Terminal Individual Paw Score, Front right, group mean [1]: 0
Terminal Individual Paw Score, Rear left, group mean [1]: 0.3
Terminal Individual Paw Score, Rear right, group mean [1]: 0
effect on diseased mouse weight [1]: no effect
incidence of disease [1]: 30%
reduction in disease severity [1]: 97%
Arthritic Index (AI), group mean ([1]; study day 14): 0
Arthritic Index (AI), group mean ([1]; study day 21): 0
Arthritic Index (AI), group mean ([1]; study day 25): 0
Arthritic Index (AI), group mean ([1]; study day 27): 0.1
Arthritic Index (AI), group mean ([1]; study day 29): 0.1
Arthritic Index (AI), group mean ([1]; study day 32): 0.1
Arthritic Index (AI), group mean ([1]; study day 34): 0.3
Arthritic Index (AI), group mean ([1]; study day 36): 0.3
Arthritic Index (AI), group mean ([1]; study day 39): 0.3
Arthritic Index (AI), group mean ([1]; study day 41): 0.3
Arthritic Index (AI), group mean ([1]; study day 42): 0.4
Toxicity yes/no at the 300 μM conc. (THP-1 or HT-1080 cells): No

LQNRRGLGLSILLNEELQNRRGL [SG#14]
Toxicity yes/no at the 300 μM conc. (THP-1 or HT-1080 cells): No

LQNRRGLDLSILLNEECGPGPGP (Possibly HERV) [SG#3]
Toxicity yes/no at the 300 μM conc. (THP-1 or HT-1080 cells): No
